Reference: patent publication US20240139207A1, “METHODS FOR TREATING PULMONARY HYPERTENSION” (United Therapeutics Corporation, priority 2022, published 2024)

System: patients with pulmonary arterial hypertension
Test: Phase 4 open-label 16-week study: clinical parameters, risk stratification, patient-reported outcomes
Type: in vivo, human
Text: The secondary endpoints of this study included measurements in: changes in prostanoid adverse events (AEs), echocardiograms, change in 6-minute walk distance (6MWD), change in Borg dyspnea score, change in World Health Organization (WHO) functional class (FC), change in serum N-terminal pro-brain natriuretic peptide (NT-proBNP) levels, impact of pulmonary hypertension on a person's life (health-related quality of life), and treatment satisfaction. Specifically, this study sought to measure the percentage of subjects that improved in each of the following individual four clinical parameters at Week 16 (6MWD, NT-proBNP, WHO FC, right atrial area) to a lower risk stratum, as defined by the 2015 ESC/ERS guidelines (Gailè et al., DOI: 10.1183/13993003.01032-2015), compared to baseline measurements. An additional endpoint was determining the percentage of subjects that meet each of the following four individual clinical parameters at Week 16 in the low risk category, as defined by 2015 ESC/ERS guidelines: 6MWD>440 meters, […].
Based on the 2015 ESC/ERS Guidelines, specific hemodynamic inclusion criteria included a mean pulmonary arterial pressure ≥25 mmHg, pulmonary artery wedge pressure or left ventricular end-diastolic pressure ≤15 mmHg, and pulmonary vascular resistance >3 Wood units, in the absence of unrepaired congenital heart disease. Other key inclusion criteria were World Health Organization functional class (FC) II or III, 6-minute walk distance (6MWD)≥250 m, and a REVEAL 2.0 risk score ≤9 (Benza et al. 2021, DOI: https://doi.org/10.1016/j.chest.2020.08.2069). Patients could be receiving up to two oral PAH background therapies if taken at a stable dose for ≥30 days prior to baseline. As this study focused on the addition of a new therapy rather than the replacement of one therapy by another therapy, participants were eligible regardless of the number of pulmonary arterial hypertension background therapies (0, 1, or 2) they were receiving at baseline. […] Baseline assessments were collected up to 14 days prior to initiation of parenteral treprostinil, and included hemodynamics via echocardiogram and RHC, FC, N-terminal-pro brain natriuretic peptide (NT-proBNP), 6MWD, and medication history. Of note, historical RHC data could be used for baseline assessments if performed up to 180 days prior to initiating parenteral treprostinil. Echocardiograms were uploaded and stored in a central repository and evaluated by an independent central reader in accordance with the American Society of Echocardiography Guidelines (Bossone et al., DOI: 10.1016/j.echo.2012.10.009).
Once patients reached at least 20 ng/kg/min and were deemed suitable for transition based on physician assessment, they were transitioned at Week 2,4, or 8 to oral treprostinil via cross-titration in an inpatient or outpatient setting over 1-21 days. All participants still receiving parenteral treprostinil at Week 8 began transitioning to oral treprostinil regardless of their parenteral treprostinil dose unless deemed unsuitable for transition by their clinician. Before transition, 6MWD, WHO FC, NT-proBNP, and echocardiography parameters were assessed.
The primary endpoint was the percentage of patients who achieved an oral treprostinil TDD of at least 12 mg (0.171 mg/kg for patients <70 kg) at Week 16. Secondary endpoints included change from baseline to Week 16 in risk strata and clinical parameters, where baseline values were collected within 14 days prior to parenteral treprostinil initiation. Changes in risk strata for FC, NT-proBNP, 6MWD, and right atrial (RA) area were assessed using the 2015 ESC/ERS Guidelines, which categorizes risk for each determinant as low, intermediate, and high (Galiè et al., 2016). Clinical parameters of interest included FC, NT-proBNP, 6MWD, echocardiography parameters, REVEAL Lite 2 score (Benza et al., 2021), and Borg Dyspnea Score (Borg, 1982, DOI: https://doi.org/10.1249/00005768-198205000-00012). […]

[1] = 2015 ESC/ERS risk strata, baseline to Week 16

In the case of `CCCCC[C@H](O)CC[C@@H]1[C@H]2Cc3cccc(OCC(=O)O)c3C[C@H]2C[C@H]1O` [oral treprostinil, treprostinil], the “percentage of patients who shifted to a lower risk stratum for 6MWD” value [1] is reported as 15%, the “percentage of patients who shifted to a lower risk stratum for FC” value [1] is reported as 39% and the “percentage of patients who shifted to a lower risk stratum for NT-proBNP” value [1] is reported as 39%. The “percentage of patients who shifted to a lower risk stratum for RA area” value [1] was 35%, the “6MWD, median” value (Week 16) was 395 m and the “Borg Dyspnea Score, median” value (Week 16) was 3. The “NT-proBNP, median” value (Week 16) was 212 ng/L, the “REVEAL Lite 2 score, median” value (Week 16) was 3.5 and the “percentage of patients classified as FC I” value (Week 16 (0% at baseline)) was 46%. The “Borg Dyspnea Score, median change from baseline” value (baseline to Week 16) was −1, the “NT-proBNP, median change from baseline” value (baseline to Week 16) was -134 ng/L and the PAHSS domains (baseline to Week 16) was “improvements were seen in most domains”. For the same compound, the “REVEAL Lite 2 score, median change from baseline” value (baseline to Week 16) was −1, the “emPHasis- scores (quality of life), median change from baseline” value (baseline to Week 16) was −3 and the “patients improving in WHO FC” value (baseline to Week 16) was 68%. For the same compound, the “patients worsening in WHO FC” value (baseline to Week 16) was “one”.
